Measured values published in patent US12336973B2, “Cancer therapeutic compositions and methods targeting DNAse1L3” (Providence Health & Services—Oregon, priority 2020, dated 2025).

System: dendritic cells
Experiment: Dendritic cell maturation (CCR7 expression by flow cytometry) in co-culture with untreated or irradiated cancer cells
Type: cell-based
Settings: DCs cultured with untreated (0Gy) or irradiated (8Gy) cancer cells; 0, 50 or 100 micromolar FCA; flow cytometry 24 hours after culturing
Procedure: FIG. 4 depicts CCR7 expression in DCs that were cultured with cancer cells, where the cancer cells were untreated (0Gy) or irradiated (8Gy). These co-cultures were treated with 0, 50, or 100 micromolar Fmoc-d-cyclohexylalanine (FCA) to inhibit DNAse1L3.
Dendritic cells were cultured (with untreated or irradiated cancer cells) and treated with increasing doses of FCA, an inhibitor of DNAse1L3 (FIG. 4). Cancer cells were co-cultured with dendritic cells and were treated with 0, 50, or 100 micromolar Fmoc-d-cyclohexylalanine (FCA) to inhibit DNAse1L3.
CCR7 expression on DCs was assessed by flow cytometry 24 hours after culturing.

O=C(N[C@H](CC1CCCCC1)C(=O)O)OCC1c2ccccc2-c2ccccc21 [FCA, Fmoc-d-cyclohexylalanine]
dendritic cell maturation assessed by upregulation of markers including CCR7: stimulates DC maturation
